{"source": "patent US10154970B2", "about": "“Methods for immunomodulation of cancer and infectious disease therapy” (The Regents of the University of California, priority 2014, dated 2018)", "format_in_all_cases": "in vivo, human MUC1.Tg C57BL/6 mice", "settings_in_all_cases": "TRIP 100 mg/kg or letrozole 0.8 mg/kg daily oral 14 days", "key": {"[1]": {"system": "T-cell surface markers (CD4, CD8, PD-1, CD28)", "assay": "Experiment 5: T-cell surface markers of spleen lymphocytes by flow cytometry", "method": "FIG. 11. Lymphocyte phenotypes following different hormonal treatments. (A) CD3+CD4+; (B) CD3+CD8+; (C) CD3+CD28+; (D) CD8+CD28+; (E) CD3+PD-1+; and (F) CD8+PD-1+; T cell surface markers were stained with indicated antibodies after […] of TRIP (100 mg/kg), estradiol (E2; 25 μg/kg), and letrozole (0.8 mg/kg) treatments (n=8 all groups).\n(§1) A total of 32 female human MUC1.Tg C57BL/6 mice, starting at approximately six weeks of age, were treated with urethane as described (Wurz G T. et al., J. Transl. Med., 11:64 (2013)). Two weeks following the final dose of urethane (Week 17), the mice were randomized into four treatment groups of approximately equal average weight (n=8, all groups): Control (no treatment); TRIP (i.e., ospemifene) 100 mg/kg; estradiol 25 μg/kg; and letrozole 0.8 mg/kg. TRIP and letrozole were prepared in DMSO and peanut oil as described above in Experiment 2 and administered daily for 14 days by oral gavage (100 μL). Estradiol was dissolved in 100% ethanol, diluted in PBS to achieve the desired concentration, and then administered daily for 14 days by s.c. injection at rotating sites using a 25-gauge needle. In Week 19, the study was terminated, 24 hours after the last treatments, and serum and spleens were collected for surface marker and Treg analyses.\n(§2) After two weeks of treatment, lymphocytes were isolated from spleen. T-cell surface markers (CD4, CD8, PD-1, CD28) and regulatory T cells (Tregs) were analyzed by flow cytometry."}, "IFN-γ": {"system": "IFN-γ", "assay": "Experiment 5: serum IFN-γ cytokine analysis", "method": "FIG. 13. Effects of TRIP on serum IFN-γ compared to estradiol and letrozole. Serum IFN-γ from untreated control, TRIP (100 mg/kg), estradiol (E2; 25 μg/kg), and letrozole (0.8 mg/kg) groups were analyzed following daily treatment for 14 days (n=8 all groups). **p<0.01, ***p<0.001.\nTRIP and letrozole were prepared in DMSO and peanut oil as described above in Experiment 2 and administered daily for 14 days by oral gavage (100 μL). Estradiol was dissolved in 100% ethanol, diluted in PBS to achieve the desired concentration, and then administered daily for 14 days by s.c. injection at rotating sites using a 25-gauge needle. In Week 19, the study was terminated, 24 hours after the last treatments, and serum and spleens were collected for surface marker and Treg analyses."}, "[2]": {"system": "regulatory T cells (Tregs)", "assay": "Experiment 5: regulatory T cells (FoxP3+/CD4+) by flow cytometry", "method": "as §1, §2"}}, "data": [{"molecule": "OCCOc1ccc(/C(=C(/CCCl)c2ccccc2)c2ccccc2)cc1", "note": "[TRIP, Z-2-[4-(4-chloro-1,2-diphenyl-but-1-enyl)-phenoxy]ethanol]", "values": [{"measurement": "expression of surface markers, including CD8 and CD28, vs control", "setting": "[1]", "value": "no difference"}, {"measurement": "serum IFN-γ concentrations compared to estradiol", "setting": "IFN-γ", "value": "significantly increased"}, {"measurement": "Tregs (FoxP3+/CD4+) compared to estradiol treatment", "setting": "[2]", "value": "significantly inhibited"}]}]}
